Key:
[1] = tested on: advanced pancreatic cancer; assay: Randomised, open-label, phase II study of gemcitabine with and without IMM-101 (IMAGE 1); assay type: in vivo, human
From the text: This study is described in U.S. Pat. No. 8,617,520 assigned to the applicant, and the results were published by Dalgeish et al, in the paper entitled “Randomised, open-label, phase II study of gemcitabine with and without IMM-101 for advanced pancreatic cancer”. [Br. J. Cancer. 2016 Sep. 27; 115(7): 789-796] and also as “Long term survival in IMAGE 1 (Immune Modulation And Gemcitabine Evaluation 1), a randomized, open-label phase II trial comparing gemcitabine with and without IMM-101 in advanced pancreatic cancer”; Angus George Dalgleish and The IMAGE 1 Trial Investigators; Journal of Clinical Oncology 2015 33:15_suppl, 3051-3051.
In summary, this study compared, in patients with advanced pancreatic cancer, the effects of gemcitabine (GEM) in combination with IMM-101 (a suspension of heat-killed whole cell M. obuense in borate-buffered saline) to gemcitabine alone on: Safety and tolerability, including QoL; clinical signs and symptoms of disease; Overall survival (OS), progression-free survival (PFS), and overall response rate (ORR; Selected markers of tumour burden and immunological status
Disease outcome—patients, who provided informed consent, participated in a screening period of up to 28 days to establish eligibility. […]

[2] = tested on: advanced pancreatic cancer; conditions: phase II trial, metastatic pancreatic cancer patients; gemcitabine therapy with or without addition of IMM-101 (background); cited from earlier work

## Nc1ccn([C@@H]2O[C@H](CO)[C@@H](O)C2(F)F)c(=O)n1 [GEM, gemcitabine]
[1]; PS2 patients
  patients with BOR of PD: 2 patients
[1]; pre-defined metastatic subgroup (84%)
  OS: 4.4 months
[2]
  overall survival: 4.4 months

Source: patent US12673074B2, “Mycobacterium for use in cancer therapy” (TONRON INTERNATIONAL LIMITED, priority 2020, dated 2026)
